For one compound, Tracer bound and remaining activity results are on record in article PMC13210772, “Dual FLT3/MAPK14 Proteolysis-Targeting Chimera (PROTAC) Induces Potent Acute Myeloid Leukemia Cell Death” (Pharmaceuticals, 2026).

Common to all, as to test: NanoBRET CELLinib128
What all share (format): binding
On the technique in general: Bioluminescence resonance energy transfer reports proximity on the nanometre scale.

The target in one experiment is T1, SIK3 (Homo sapiens, UniProt Q9Y2K2).
T1 construct: Full-length kinase ORF (Promega, Madison, WI, USA) cloned in frame with a NanoLuc-vector was transfected into HEK293T cells; host or cells: HEK293T
Particulars: 1 µM; 100% no effect, 0% complete tracer displacement. As to the method:
(§1) To get an impression about the binding strength of the PROTAC MA191 and the reference inhibitor MA68 to other kinases besides FLT3-ITD the binding on a kinase panel of further 128 representative protein kinases at 1 μM concentration was tested using the NanoBRET^TM cellular target engagement assay (CELLinib128 assay, CELLinib GmbH, Frankfurt, Germany). […] In none of the 128 kinases MA191 was able to displace the tracer (inhibitor) used by more than 50%, Table S1, Supplementary Information).
(§2) The CELLinib128 assay was performed by CELLinib GmbH, Frankfurt (Germany) as described previously. In brief: Full-length kinase ORF (Promega, Madison, WI, USA) cloned in frame with a NanoLuc-vector was transfected into HEK293T cells in Opti-MEM without phenol red (Life Technologies, Carlsbad, CA, USA) at a density of 2 × 10^5 cells/mL using FuGENE HD (Promega, E2312) and proteins were allowed to express for 20 h. For CDKs, where indicated below, an excess of an activator without an NLuc-fusion was cotransfected. […] The system was allowed to equilibrate at 37 °C for 2 h and 5% CO2 prior to BRET measurements. For PKCs, a chemical activator PMA was added in a final concentration of 1 µM was added together with test compounds and tracers (Promega, V1171). To measure BRET, NanoBRET^TM NanoGlo substrate + extracellular NanoLuc inhibitor (Promega, N2160) were added as per the manufacturer’s protocol, and filtered luminescence was measured (450 nm BP filter (donor) and 610 nm LP filter (acceptor)). For the 1-shot test compounds, data were normalized to the tracer control and the background control or control compound plateau and an average and SD were calculated. […] For the control compounds competitive displacement data were normalized to the tracer Ctrl and the background Ctrl and then plotted and fitted using GraphPad Prism 10 software using a normalized 3-parameter curve fit with the following equation: Y = 100/(1 + 10^X−LogIC50).

The target of another experiment is T2, MAP4K1 (Homo sapiens, UniProt Q92918).
T2 construct: Full-length kinase ORF (Promega, Madison, WI, USA) cloned in frame with a NanoLuc-vector was transfected into HEK293T cells; host or cells: HEK293T
Particulars: 100% no effect, 0% complete tracer displacement, read-out: Tracer bound. The method, then: as §1, §2

The target of the next experiment is T3, TNK1 (Homo sapiens, UniProt Q13470).
T3 construct: Full-length kinase ORF (Promega, Madison, WI, USA) cloned in frame with a NanoLuc-vector; host or cells: HEK293T
The note with it: 100% no effect, 0% complete tracer displacement, read-out: Tracer bound. The method, then:
as §1, §2

The next experiment concerns the target T4, PLK4 (Homo sapiens, UniProt O00444).
T4 construct: Full-length kinase ORF (Promega, Madison, WI, USA) cloned in frame with a NanoLuc-vector was transfected into HEK293T cells; host or cells: HEK293T
The note with it: 100% no effect, 0% complete tracer displacement, read-out: Tracer bound. The method, then:
as §1, §2

The target in another experiment is T5, FGFR1 (Homo sapiens, UniProt P11362).
T5 construct: Full-length kinase ORF (Promega, Madison, WI, USA) cloned in frame with a NanoLuc-vector was transfected into HEK293T cells; host or cells: HEK293T
The note with it: 100% no effect, 0% complete tracer displacement, read-out: Tracer bound. As to the method:
as §1, §2

Another experiment has as its target T6, PAK6 (Homo sapiens, UniProt Q9NQU5).
T6 construct: Full-length kinase ORF (Promega, Madison, WI, USA) cloned in frame with a NanoLuc-vector was transfected into HEK293T cells; host or cells: HEK293T
Particulars: 100% no effect, 0% complete tracer displacement, read-out: Tracer bound. The method, then: as §1, §2

In a further experiment the target is T7, IRAK3 (Homo sapiens, UniProt Q9Y616).
T7 construct: Full-length kinase ORF (Promega, Madison, WI, USA) cloned in frame with a NanoLuc-vector was transfected into HEK293T cells; host or cells: HEK293T
The note with it: 100% no effect, 0% complete tracer displacement, read-out: Tracer bound. As to the method: as §1, §2

A further experiment deals with T8, EPHA6 (Homo sapiens, UniProt Q9UF33).
T8 construct: Full-length kinase ORF (Promega, Madison, WI, USA) cloned in frame with a NanoLuc-vector was transfected into HEK293T cells; host or cells: HEK293T
Particulars: 100% no effect, 0% complete tracer displacement, read-out: Tracer bound. The method, then:
as §1, §2

In a further experiment the target is T9, PRKCQ-PMA (Homo sapiens, UniProt Q04759).
T9 construct: Full-length kinase ORF (Promega, Madison, WI, USA) cloned in frame with a NanoLuc-vector was transfected into HEK293T cells; host or cells: HEK293T
The note with it: 100% no effect, 0% complete tracer displacement, read-out: Tracer bound. The method, then:
as §1, §2

The next experiment has as its target T10, PRKACB (Homo sapiens, UniProt P22694).
T10 construct: Full-length kinase ORF (Promega, Madison, WI, USA) cloned in frame with a NanoLuc-vector was transfected into HEK293T cells; host or cells: HEK293T
The note with it: 100% no effect, 0% complete tracer displacement, read-out: Tracer bound. As to the method:
as §1, §2

A further experiment deals with T11, MAP3K9 (Homo sapiens, UniProt P80192).
T11 construct: Full-length kinase ORF (Promega, Madison, WI, USA) cloned in frame with a NanoLuc-vector was transfected into HEK293T cells; host or cells: HEK293T
The note with it: 100% no effect, 0% complete tracer displacement, read-out: Tracer bound. The method, then:
as §1, §2

A further experiment deals with T12, AURKA (Homo sapiens, UniProt O14965).
T12 construct: Full-length kinase ORF (Promega, Madison, WI, USA) cloned in frame with a NanoLuc-vector was transfected into HEK293T cells; host or cells: HEK293T
Particulars: 100% no effect, 0% complete tracer displacement, read-out: Tracer bound. The method, then: as §1, §2

In another experiment the target is T13, STK4 (Homo sapiens, UniProt Q13043).
T13 construct: Full-length kinase ORF (Promega, Madison, WI, USA) cloned in frame with a NanoLuc-vector was transfected into HEK293T cells; host or cells: HEK293T
The note with it: 1 µM; 100% no effect, 0% complete tracer displacement. The method, then: as §1, §2

The target in another experiment is T14, ULK2 (Homo sapiens, UniProt Q8IYT8).
T14 construct: Full-length kinase ORF (Promega, Madison, WI, USA) cloned in frame with a NanoLuc-vector; host or cells: HEK293T
The note with it: 100% no effect, 0% complete tracer displacement, read-out: Tracer bound. The method, then: as §1, §2

The target of another experiment is T15, CHEK2 (Homo sapiens, UniProt O96017).
T15 construct: Full-length kinase ORF (Promega, Madison, WI, USA) cloned in frame with a NanoLuc-vector was transfected into HEK293T cells; host or cells: HEK293T
Particulars: 100% no effect, 0% complete tracer displacement, read-out: Tracer bound. The method, then:
as §1, §2

T4 sequence (O00444 whole entry): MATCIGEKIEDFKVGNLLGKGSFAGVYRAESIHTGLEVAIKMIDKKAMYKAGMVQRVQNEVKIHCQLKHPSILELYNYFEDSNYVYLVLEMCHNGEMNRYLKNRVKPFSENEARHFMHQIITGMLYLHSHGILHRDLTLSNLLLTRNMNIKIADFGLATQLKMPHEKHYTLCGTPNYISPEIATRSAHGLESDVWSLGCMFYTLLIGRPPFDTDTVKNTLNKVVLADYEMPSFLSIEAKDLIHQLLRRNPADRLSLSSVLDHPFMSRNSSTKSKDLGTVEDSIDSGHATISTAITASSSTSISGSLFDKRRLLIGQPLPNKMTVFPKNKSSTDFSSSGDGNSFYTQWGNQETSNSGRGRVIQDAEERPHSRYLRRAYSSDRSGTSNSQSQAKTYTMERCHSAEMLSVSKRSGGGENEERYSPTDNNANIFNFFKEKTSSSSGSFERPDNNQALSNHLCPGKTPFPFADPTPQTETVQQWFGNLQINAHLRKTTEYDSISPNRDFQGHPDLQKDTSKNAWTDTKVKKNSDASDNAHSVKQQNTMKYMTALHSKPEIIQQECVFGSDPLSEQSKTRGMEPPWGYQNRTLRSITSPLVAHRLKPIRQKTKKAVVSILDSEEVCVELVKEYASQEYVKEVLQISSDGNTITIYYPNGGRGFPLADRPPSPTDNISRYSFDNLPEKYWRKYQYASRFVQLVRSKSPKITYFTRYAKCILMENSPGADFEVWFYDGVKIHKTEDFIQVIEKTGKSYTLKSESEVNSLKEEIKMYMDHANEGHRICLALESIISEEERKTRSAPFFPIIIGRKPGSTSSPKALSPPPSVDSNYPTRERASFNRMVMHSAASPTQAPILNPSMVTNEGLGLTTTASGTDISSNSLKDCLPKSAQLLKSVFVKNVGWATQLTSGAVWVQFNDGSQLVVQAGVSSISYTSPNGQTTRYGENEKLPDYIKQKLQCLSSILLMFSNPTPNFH
T11 sequence (P80192 whole entry): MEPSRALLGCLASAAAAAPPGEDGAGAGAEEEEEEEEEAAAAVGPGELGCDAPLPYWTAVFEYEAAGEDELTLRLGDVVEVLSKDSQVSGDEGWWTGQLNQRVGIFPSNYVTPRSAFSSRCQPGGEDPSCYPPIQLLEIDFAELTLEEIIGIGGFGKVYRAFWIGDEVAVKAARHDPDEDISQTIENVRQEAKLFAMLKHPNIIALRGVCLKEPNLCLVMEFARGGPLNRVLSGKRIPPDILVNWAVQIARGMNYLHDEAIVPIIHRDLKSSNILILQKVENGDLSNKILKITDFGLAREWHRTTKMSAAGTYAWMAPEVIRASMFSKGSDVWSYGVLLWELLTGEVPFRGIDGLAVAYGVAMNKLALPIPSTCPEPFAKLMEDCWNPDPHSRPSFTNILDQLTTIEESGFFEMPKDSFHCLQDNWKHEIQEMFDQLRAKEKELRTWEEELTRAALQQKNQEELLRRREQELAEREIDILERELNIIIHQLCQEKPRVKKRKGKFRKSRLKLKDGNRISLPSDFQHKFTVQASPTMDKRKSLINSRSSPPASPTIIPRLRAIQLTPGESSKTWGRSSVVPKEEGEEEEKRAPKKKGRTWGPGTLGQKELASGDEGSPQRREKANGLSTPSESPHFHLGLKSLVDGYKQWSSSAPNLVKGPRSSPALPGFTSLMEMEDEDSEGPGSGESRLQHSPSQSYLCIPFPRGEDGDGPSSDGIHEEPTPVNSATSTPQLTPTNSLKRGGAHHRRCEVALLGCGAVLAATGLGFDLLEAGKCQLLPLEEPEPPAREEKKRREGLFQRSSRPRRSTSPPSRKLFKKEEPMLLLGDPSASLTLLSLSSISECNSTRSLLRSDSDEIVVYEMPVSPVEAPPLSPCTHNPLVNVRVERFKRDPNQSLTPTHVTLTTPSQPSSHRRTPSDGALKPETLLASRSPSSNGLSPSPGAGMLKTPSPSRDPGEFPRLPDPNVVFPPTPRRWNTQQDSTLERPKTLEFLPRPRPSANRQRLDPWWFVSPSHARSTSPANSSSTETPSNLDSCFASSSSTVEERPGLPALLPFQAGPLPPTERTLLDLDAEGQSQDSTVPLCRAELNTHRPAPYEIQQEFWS
T15 sequence (O96017 whole entry): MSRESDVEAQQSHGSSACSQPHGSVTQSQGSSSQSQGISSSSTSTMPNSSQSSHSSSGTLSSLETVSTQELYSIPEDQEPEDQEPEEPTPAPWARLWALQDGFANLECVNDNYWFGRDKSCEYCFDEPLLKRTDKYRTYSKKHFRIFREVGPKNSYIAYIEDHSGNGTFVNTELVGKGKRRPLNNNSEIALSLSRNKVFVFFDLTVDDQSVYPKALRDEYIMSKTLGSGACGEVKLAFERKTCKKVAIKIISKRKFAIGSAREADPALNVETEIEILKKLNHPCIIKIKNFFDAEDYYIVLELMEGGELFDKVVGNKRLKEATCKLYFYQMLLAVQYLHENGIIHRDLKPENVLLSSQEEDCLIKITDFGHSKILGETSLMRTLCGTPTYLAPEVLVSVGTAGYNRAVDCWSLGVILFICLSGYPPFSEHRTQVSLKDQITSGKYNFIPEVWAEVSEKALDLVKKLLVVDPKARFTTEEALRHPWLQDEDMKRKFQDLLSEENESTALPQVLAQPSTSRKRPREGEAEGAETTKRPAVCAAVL
T7 sequence (Q9Y616 whole entry): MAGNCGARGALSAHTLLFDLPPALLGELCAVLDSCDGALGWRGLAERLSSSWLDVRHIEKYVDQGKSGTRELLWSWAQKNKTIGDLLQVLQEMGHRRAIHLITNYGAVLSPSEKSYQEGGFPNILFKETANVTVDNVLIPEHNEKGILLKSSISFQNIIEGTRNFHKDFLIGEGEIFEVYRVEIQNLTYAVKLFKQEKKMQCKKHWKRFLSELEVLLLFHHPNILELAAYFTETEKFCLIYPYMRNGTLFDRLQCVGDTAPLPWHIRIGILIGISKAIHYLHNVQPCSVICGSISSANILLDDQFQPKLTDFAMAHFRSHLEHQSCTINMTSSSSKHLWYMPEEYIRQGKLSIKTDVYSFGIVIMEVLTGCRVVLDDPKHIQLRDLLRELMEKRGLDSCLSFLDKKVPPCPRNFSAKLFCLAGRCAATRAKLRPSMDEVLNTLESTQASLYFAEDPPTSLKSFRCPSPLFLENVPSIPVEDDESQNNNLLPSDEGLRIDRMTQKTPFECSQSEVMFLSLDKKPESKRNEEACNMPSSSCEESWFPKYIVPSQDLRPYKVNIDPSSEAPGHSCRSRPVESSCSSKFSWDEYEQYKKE
T6 sequence (Q9NQU5 whole entry): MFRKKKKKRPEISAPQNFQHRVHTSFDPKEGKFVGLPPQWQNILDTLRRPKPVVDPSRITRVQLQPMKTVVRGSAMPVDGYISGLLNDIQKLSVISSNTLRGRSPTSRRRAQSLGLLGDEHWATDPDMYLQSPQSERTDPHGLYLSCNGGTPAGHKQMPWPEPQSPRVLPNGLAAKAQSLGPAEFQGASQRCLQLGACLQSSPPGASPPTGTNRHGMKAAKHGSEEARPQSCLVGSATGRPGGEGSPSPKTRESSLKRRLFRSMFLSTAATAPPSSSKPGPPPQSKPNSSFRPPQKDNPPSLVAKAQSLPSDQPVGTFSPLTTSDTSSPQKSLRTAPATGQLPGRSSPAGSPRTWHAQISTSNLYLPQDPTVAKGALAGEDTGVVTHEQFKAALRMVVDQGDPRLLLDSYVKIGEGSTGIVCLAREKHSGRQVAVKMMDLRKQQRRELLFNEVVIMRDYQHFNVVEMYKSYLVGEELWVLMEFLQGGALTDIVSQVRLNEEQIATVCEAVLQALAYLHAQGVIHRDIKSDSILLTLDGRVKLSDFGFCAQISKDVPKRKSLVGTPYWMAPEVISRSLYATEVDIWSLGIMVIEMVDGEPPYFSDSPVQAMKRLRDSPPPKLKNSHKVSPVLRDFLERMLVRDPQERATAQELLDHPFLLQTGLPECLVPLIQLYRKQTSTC
T5 sequence (P11362 22-822): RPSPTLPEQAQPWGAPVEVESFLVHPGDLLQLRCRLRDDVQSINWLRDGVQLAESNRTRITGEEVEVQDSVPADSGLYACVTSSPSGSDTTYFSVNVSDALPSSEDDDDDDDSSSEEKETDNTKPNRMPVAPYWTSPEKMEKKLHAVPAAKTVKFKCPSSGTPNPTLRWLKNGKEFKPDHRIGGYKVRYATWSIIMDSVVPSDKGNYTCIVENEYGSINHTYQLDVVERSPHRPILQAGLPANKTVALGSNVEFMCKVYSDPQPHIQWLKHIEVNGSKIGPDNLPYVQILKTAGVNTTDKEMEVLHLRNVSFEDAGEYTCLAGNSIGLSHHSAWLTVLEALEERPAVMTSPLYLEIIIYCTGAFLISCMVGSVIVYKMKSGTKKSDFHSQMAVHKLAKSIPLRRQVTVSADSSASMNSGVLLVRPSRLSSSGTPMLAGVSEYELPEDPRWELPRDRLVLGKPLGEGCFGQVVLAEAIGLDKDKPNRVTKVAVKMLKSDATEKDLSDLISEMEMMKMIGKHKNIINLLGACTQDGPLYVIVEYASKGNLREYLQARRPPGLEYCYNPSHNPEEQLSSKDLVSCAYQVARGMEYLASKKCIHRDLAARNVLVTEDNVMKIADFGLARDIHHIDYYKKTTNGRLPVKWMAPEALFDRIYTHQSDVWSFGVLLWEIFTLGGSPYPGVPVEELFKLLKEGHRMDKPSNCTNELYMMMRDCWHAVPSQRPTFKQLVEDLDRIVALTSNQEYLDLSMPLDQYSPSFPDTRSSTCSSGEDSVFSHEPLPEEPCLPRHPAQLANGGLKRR

On to `Cc1ncsc1-c1ccc([C@H](C)NC(=O)[C@@H]2C[C@@H](O)CN2C(=O)[C@@H](NC(=O)[C@H]2CC[C@H](C(=O)N3CCN(CCNC(=O)c4cc(Oc5ccc(NC(=O)Nc6cc(C(C)(C)C)on6)cc5)ccn4)CC3)CC2)C(C)(C)C)cc1` [MA191, 4-(4-(3-(5-(tert-Butyl)isoxazol-3-yl)ureido)phenoxy)-N-(2-(4-(trans-4-(((S)-1-((2S,4R)-4-hydroxy-2-(((S)-1-(4-(4-methylthiazol-5-yl)phenyl)ethyl)carbamoyl)pyrrolidin-1-yl)-3,3-dimethyl-1-oxobutan-2-yl)carbamoyl)cyclohexanecarbonyl)piperazin-1-yl)ethyl)picolinamide], for which the Tracer bound is on record as 106.3% at SIK3 and 102.0% on STK4. Besides, the remaining activity at 1 µM on MAP4K1 was determined as 105%; on TNK1, 120%; at PLK4, 112%; on FGFR1, 103%; on PAK6 it was 120%; at IRAK3 it was 115%. Also, the remaining activity at 1 µM turned out to be 82.5% at EPHA6; 104% on PRKCQ-PMA; 106% at PRKACB; 108% at MAP3K9; 120% on AURKA; 98.6% on ULK2. Besides, the remaining activity at 1 µM on CHEK2 turned out to be 111%.
